The source of these data is ChEMBL document CHEMBL3784948, “Pharmacokinetics of diclofenac and five metabolites after single doses in healthy volunteers and after repeated doses in patients” (Xenobiotica, 1988).

Type in all cases: ADME, organism-based
A short description of series [1]: Apparent elimination half life in healthy volunteer (3 volunteers) at 100 mg, po administered as single dose by capillary column gas chromatographic method. The conditions noted are these: human, in vivo, read-out: betat1/2(app) (converted).
Series [2] has as its system Homo sapiens. Kind of series: AUC (0 to 96 hrs) in healthy volunteer (3 volunteers) at 100 mg, po administered as single dose by capillary column gas chromatographic method. The arrangement: time < 96 hr, dose 100 mg, route oral. Conditions: in vivo.
Series [3] relates to Homo sapiens. Kind of series: AUC (0 to 96 hrs) in healthy volunteer (3 volunteers) assessed as 3'-hydroxy diclofenac at 100 mg, po administered as single dose by capillary column gas chromatographic method. The arrangement: dose 100 mg, time < 96 hr, route oral. Conditions: in vivo.
For series [4], the system named is Homo sapiens. In words: Cmax in healthy volunteer (3 volunteers) at 100 mg, po administered as single dose by capillary column gas chromatographic method. The arrangement: dose 100 mg, route oral. The conditions noted are these: in vivo.
The test system of series [5] is Homo sapiens. Kind of series: Cmax in healthy volunteer (3 volunteers) assessed as 3'-hydroxy-4'-methoxy diclofenac at 100 mg, po administered as single dose by capillary column gas chromatographic method. Further details: dose 100 mg, route oral. The conditions noted are these: in vivo.
In series [6] the test system is Homo sapiens. In words: Cmax in healthy volunteer (3 volunteers) assessed as 3'-hydroxy diclofenac at 100 mg, po administered as single dose by capillary column gas chromatographic method. The arrangement: dose 100 mg, route oral. The conditions noted are these: in vivo.
Series [7] in a line: Total drug excretion in healthy volunteer (3 volunteers) urine assessed as 3'-hydroxy-4'-methoxy diclofenac at 100 mg, po administered as single dose measured over 96 hrs by capillary column gas chromatographic method. Conditions: human, in vivo.
The test system of series [8] is Homo sapiens. Kind of series: Tmax in healthy volunteer (3 volunteers) assessed as 4',5-dihydroxy diclofenac at 100 mg, po administered as single dose by capillary column gas chromatographic method. Conditions: in vivo.
The test system of series [9] is Homo sapiens. In words: AUC (0 to infinity) in healthy volunteer (2 volunteers) assessed as 3'-hydroxy-4'-methoxy diclofenac at 100 mg, po administered as single dose by capillary column gas chromatographic method. The arrangement: dose 100 mg, route oral, time infinity. The conditions noted are these: in vivo.
Series [10] concerns Homo sapiens. Kind of series: Apparent elimination half life in healthy volunteer (3 volunteers) assessed as 5-hydroxy diclofenac at 100 mg, po administered as single dose by capillary column gas chromatographic method. The conditions noted are these: in vivo.
Series [11] relates to Homo sapiens. In words: Apparent elimination half life in healthy volunteer (3 volunteers) assessed as 4'-hydroxy diclofenac at 100 mg, po administered as single dose by capillary column gas chromatographic method. The conditions noted are these: in vivo.
In series [12] the test system is Homo sapiens. In words: AUC (0 to 96 hrs) in healthy volunteer (3 volunteers) assessed as 4'-hydroxy diclofenac at 100 mg, po administered as single dose by capillary column gas chromatographic method. The arrangement: time < 96 hr, dose 100 mg, route oral. Conditions: in vivo.
The test system of series [13] is Homo sapiens. In words: AUC (0 to 72 hrs) in healthy volunteer assessed as 3'-hydroxy-4'-methoxy diclofenac at 100 mg, po administered as single dose by capillary column gas chromatographic method. The arrangement: time < 72 hr, dose 100 mg, route oral. Conditions: in vivo.
In series [14] the test system is Homo sapiens. Kind of series: AUC (0 to 96 hrs) in healthy volunteer (3 volunteers) assessed as 4',5-dihydroxy diclofenac at 100 mg, po administered as single dose by capillary column gas chromatographic method. Further details: time < 96 hr, dose 100 mg, route oral. Conditions: in vivo.
Series [15] relates to Homo sapiens. In words: AUC (0 to infinity) in healthy volunteer (3 volunteers) assessed as 5-hydroxy diclofenac at 100 mg, po administered as single dose by capillary column gas chromatographic method. The arrangement: dose 100 mg, route oral, time infinity. The conditions noted are these: in vivo.
Series [16] in a line: Total drug excretion in healthy volunteer (3 volunteers) urine assessed as 5-hydroxy diclofenac at 100 mg, po administered as single dose measured over 96 hrs by capillary column gas chromatographic method. The conditions noted are these: human, in vivo.
Series [17] deals with Homo sapiens. In words: AUC (0 to infinity) in healthy volunteer (3 volunteers) at 100 mg, po administered as single dose by capillary column gas chromatographic method. The arrangement: dose 100 mg, time infinity, route oral. The conditions noted are these: in vivo.
Series [18] in a line: Total drug excretion in healthy volunteer (3 volunteers) urine assessed as 4',5-dihydroxy diclofenac at 100 mg, po administered as single dose measured over 96 hrs by capillary column gas chromatographic method. The conditions noted are these: human, in vivo.
The test system of series [19] is Homo sapiens. In words: Tmax in healthy volunteer (3 volunteers) assessed as 5-hydroxy diclofenac at 100 mg, po administered as single dose by capillary column gas chromatographic method. Conditions: in vivo.
A short description of series [20]: Total drug excretion in healthy volunteer (3 volunteers) urine assessed as 3'-hydroxy diclofenac at 100 mg, po administered as single dose measured over 96 hrs by capillary column gas chromatographic method. Conditions: human, in vivo.
The subject of series [21] is Homo sapiens. In words: Cmax in healthy volunteer (3 volunteers) assessed as 5-hydroxy diclofenac at 100 mg, po administered as single dose by capillary column gas chromatographic method. Further details: dose 100 mg, route oral. Conditions: in vivo.
Series [22] in a line: Total drug excretion in healthy volunteer (3 volunteers) urine assessed as 4'-hydroxy diclofenac at 100 mg, po administered as single dose measured over 96 hrs by capillary column gas chromatographic method. Conditions: human, in vivo.
Series [23] has as its system Homo sapiens. In words: Tmax in healthy volunteer (3 volunteers) assessed as 4'-hydroxy diclofenac at 100 mg, po administered as single dose by capillary column gas chromatographic method. Conditions: in vivo.
Series [24] concerns Homo sapiens. In words: Apparent elimination half life in healthy volunteer (3 volunteers) assessed as 3'-hydroxy diclofenac at 100 mg, po administered as single dose by capillary column gas chromatographic method. Conditions: in vivo.
Series [25] relates to Homo sapiens. Kind of series: AUC (0 to infinity) in healthy volunteer (3 volunteers) assessed as 3'-hydroxy diclofenac at 100 mg, po administered as single dose by capillary column gas chromatographic method. Further details: dose 100 mg, time infinity, route oral. Conditions: in vivo.
In series [26] the test system is Homo sapiens. In words: AUC (0 to infinity) in healthy volunteer (3 volunteers) assessed as 4',5-dihydroxy diclofenac at 100 mg, po administered as single dose by capillary column gas chromatographic method. The arrangement: dose 100 mg, time infinity, route oral. The conditions noted are these: in vivo.
Series [27] deals with Homo sapiens. Kind of series: Tmax in healthy volunteer (3 volunteers) assessed as 3'-hydroxy diclofenac at 100 mg, po administered as single dose by capillary column gas chromatographic method. Conditions: in vivo.
For series [28], the system named is Homo sapiens. Kind of series: AUC (0 to 96 hrs) in healthy volunteer (3 volunteers) assessed as 5-hydroxy diclofenac at 100 mg, po administered as single dose by capillary column gas chromatographic method. Further details: dose 100 mg, time < 96 hr, route oral. The conditions noted are these: in vivo.
Series [29] in a line: Total drug excretion in healthy volunteer (3 volunteers) urine at 100 mg, po administered as single dose measured over 96 hrs by capillary column gas chromatographic method. Conditions: human, in vivo.
Series [30] has as its system Homo sapiens. Kind of series: AUC (0 to 96 hrs) in healthy volunteer (3 volunteers) assessed as 3'-hydroxy-4'-methoxy diclofenac at 100 mg, po administered as single dose by capillary column gas chromatographic method. The arrangement: dose 100 mg, time < 96 hr, route oral. Conditions: in vivo.
Series [31] is described as follows: Tmax in healthy volunteer (3 volunteers) at 100 mg, po administered as single dose by capillary column gas chromatographic method. Conditions: human, in vivo.
Series [32] relates to Homo sapiens. Kind of series: Cmax in healthy volunteer (3 volunteers) assessed as 4',5-dihydroxy diclofenac at 100 mg, po administered as single dose by capillary column gas chromatographic method. The arrangement: dose 100 mg, route oral. The conditions noted are these: in vivo.
The test system of series [33] is Homo sapiens. In words: Apparent elimination half life in healthy volunteer (3 volunteers) assessed as 3'-hydroxy-4'-methoxy diclofenac at 100 mg, po administered as single dose by capillary column gas chromatographic method. Conditions: in vivo.
For series [34], the system named is Homo sapiens. Kind of series: AUC (0 to infinity) in healthy volunteer (3 volunteers) assessed as 4'-hydroxy diclofenac at 100 mg, po administered as single dose by capillary column gas chromatographic method. Further details: dose 100 mg, route oral, time infinity. Conditions: in vivo.
Series [35] deals with Homo sapiens. In words: Apparent elimination half life in healthy volunteer (3 volunteers) assessed as 4',5-dihydroxy diclofenac at 100 mg, po administered as single dose by capillary column gas chromatographic method. Conditions: in vivo.
The test system of series [36] is Homo sapiens. In words: Cmax in healthy volunteer (3 volunteers) assessed as 4'-hydroxy diclofenac at 100 mg, po administered as single dose by capillary column gas chromatographic method. Conditions: in vivo. Further details: dose 100 mg, route oral.
Series [37] has as its system Homo sapiens. In words: Tmax in healthy volunteer (3 volunteers) assessed as 3'-hydroxy-4'-methoxy diclofenac at 100 mg, po administered as single dose by capillary column gas chromatographic method. Conditions: in vivo.
Series [38] has as its system Plasma. Kind of series: Steady state trough plasma concentration in chronic polyarthritis patient (6 patients) at 75 mg, po bid administered for 6 to 10 months by capillary column gas chromatographic method. Conditions: human, in vivo.
In series [39] the test system is Plasma. In words: Steady state trough plasma concentration in chronic polyarthritis patient (6 patients) assessed as 4'-hydroxy diclofenac at 75 mg, po bid administered for 6 to 10 months by capillary column gas chromatographic method. The conditions noted are these: human, in vivo.
Series [40] relates to Plasma. Kind of series: Steady state trough plasma concentration in chronic polyarthritis patient (6 patients) assessed as 3'-hydroxy-4'-methoxy diclofenac at 75 mg, po bid administered for 6 to 10 months by capillary column gas chromatographic method. The conditions noted are these: human, in vivo.
For series [41], the system named is Plasma. Kind of series: Steady state trough plasma concentration in chronic polyarthritis patient (6 patients) assessed as 5-hydroxy diclofenac at 75 mg, po bid administered for 6 to 10 months by capillary column gas chromatographic method. The conditions noted are these: human, in vivo.
Series [42] relates to Plasma. Kind of series: Steady state trough plasma concentration in chronic polyarthritis patient (6 patients) assessed as 3'-hydroxy diclofenac at 75 mg, po bid administered for 6 to 10 months by capillary column gas chromatographic method. Conditions: human, in vivo.
The subject of series [43] is Plasma. In words: Steady state trough plasma concentration in chronic polyarthritis patient (6 patients) assessed as 4',5-dihydroxy diclofenac at 75 mg, po bid administered for 6 to 10 months by capillary column gas chromatographic method. The conditions noted are these: human, in vivo.

What is called Tmax is the time from dosing to the highest level.

`O=C([O-])Cc1ccccc1Nc1c(Cl)cccc1Cl.[Na+]` [DICLOFENAC SODIUM]: the half-life in series [1] was 60 min. Besides, the AUC in series [2] is 6.05 nmol·h/g; in series [3], 1.71 nmol·h/g; in series [9], 61.82 nmol·h/g; in series [12], 2.43 nmol·h/g; in series [13] it was 46.09 nmol·h/g; in series [14] it was 1.46 nmol·h/g. For the same molecule, the AUC worked out at 0.58 nmol·h/g in [15]; 6.05 nmol·h/g in series [17]; 1.71 nmol·h/g in [25]; 1.46 nmol·h/g in [26]; 0.58 nmol·h/g in series [28]; 35.22 nmol·h/g in [30]. In series [34], the AUC came out at 2.43 nmol·h/g. Moreover, the Cmax stood at 9.73 nmol/g in series [4]; 0.49 nmol/g in [5]; 0.36 nmol/g in [6]; 0.45 nmol/g in series [21]; 0.44 nmol/g in series [32]; 1.19 nmol/g in series [36]. Moreover, the Drug excretion in series [7] is 1.3 %ID; in series [16], 4.66 %ID; in [18] it was 5.86 %ID; in series [20] it was 2.79 %ID; in [22], 9.92 %ID; in series [29], 4.45 %ID. Moreover, the Tmax in [8] came to 40.2 min; in series [19] it was 19.8 min; in [23], 19.8 min; in series [27], 19.8 min; in series [31] it was 19.8 min; in series [37], 720 min. For the same molecule, the “betat1/2(app)” value in [10] stood at 1 h; in series [11] it was 2 h; in series [24], 1.1 h; in [33], 78 h; in [35], 2.6 h.

On to `Cc1nnc(SCC2=C(C(=O)O)N3C(=O)[C@@H](NC(=O)Cn4cc(Cl)c(=O)c(Cl)c4)[C@H]3SC2)s1` [CEFAZEDONE], for which the Cminss was 0.565 nmol/g in [38]; 0.438 nmol/g in series [39]; 3.687 nmol/g in series [40]; 0.234 nmol/g in series [41]; 0.302 nmol/g in series [42]; 0.252 nmol/g in series [43].
